# Test results taken from the supplement of paper PMC12463676, “Small-molecule dissolution of stress granules by redox modulation benefits ALS models” (Nature Chemical Biology, 2025).
# Assays:
# lipoamide = compound: NC(=O)CCCCC1CCSS1 [lipoamide]; assay: thermal stability z-score vs DMSO; higher = more thermally stabilized by treatment; details: HeLa, lipoamide concentration 100 µM
# Experimental: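 Cellular thermal proteome profiling in HeLa cells. Cells were treated with 100 µM lipoamide for 1 h, with or without 1 mM arsenate for a further 1 h, then heated to ten temperatures (37-66.3 °C), and soluble protein was quantified by TMT mass spectrometry relative to 0.1% DMSO controls. The thermal stability score (sum of log2 fold changes minus the abundance score) was transformed to a z-score; mean of n = 3 experiments.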
# potassium arsenate = compound: O=[As]([O-])(O)O.[K+] [potassium arsenate]; assay: as above; details: HeLa; arsenate concentration 1 mM
# Experimental: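 Cellular thermal proteome profiling in HeLa cells treated with 1 mM arsenate for 1 h (DMSO pretreatment), heated to ten temperatures (37-66.3 °C). Soluble protein was quantified by TMT mass spectrometry relative to DMSO controls; the thermal stability score was transformed to a z-score; mean of n = 3 experiments.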
# [1] = arsenate co-treatment: 1 mM arsenate 1 h
# 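Note: each temperature applied for 3 min, abundance score taken as mean log2 fold change at the two lowest temperatures, z-score obtained by mean subtraction and division by SD.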
# UniProt Q9NVV0, sequence (Q9NVV0 whole entry): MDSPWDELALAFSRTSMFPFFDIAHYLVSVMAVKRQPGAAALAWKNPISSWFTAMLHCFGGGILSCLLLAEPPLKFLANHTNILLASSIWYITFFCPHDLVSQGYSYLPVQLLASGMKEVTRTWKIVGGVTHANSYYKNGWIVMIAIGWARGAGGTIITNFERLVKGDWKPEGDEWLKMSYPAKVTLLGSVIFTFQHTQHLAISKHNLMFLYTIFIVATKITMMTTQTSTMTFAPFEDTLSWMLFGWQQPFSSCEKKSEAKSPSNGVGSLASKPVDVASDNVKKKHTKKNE
# UniProt Q5BJD5, sequence (Q5BJD5 whole entry): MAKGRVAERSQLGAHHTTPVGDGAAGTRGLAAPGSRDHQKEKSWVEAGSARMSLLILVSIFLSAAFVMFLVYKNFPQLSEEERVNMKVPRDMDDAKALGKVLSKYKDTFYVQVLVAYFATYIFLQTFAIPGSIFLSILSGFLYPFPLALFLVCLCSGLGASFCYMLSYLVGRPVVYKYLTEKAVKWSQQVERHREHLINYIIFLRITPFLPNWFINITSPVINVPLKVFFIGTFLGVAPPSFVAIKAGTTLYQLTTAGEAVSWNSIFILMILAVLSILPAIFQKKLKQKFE
# UniProt P49755, sequence (P49755 whole entry): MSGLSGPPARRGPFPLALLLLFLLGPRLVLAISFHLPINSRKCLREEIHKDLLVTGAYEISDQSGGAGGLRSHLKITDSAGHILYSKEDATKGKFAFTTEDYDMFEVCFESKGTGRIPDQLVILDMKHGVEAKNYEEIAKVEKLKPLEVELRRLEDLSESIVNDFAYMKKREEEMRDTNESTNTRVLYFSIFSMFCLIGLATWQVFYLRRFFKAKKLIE
# UniProt Q9Y2S6, sequence (Q9Y2S6 whole entry): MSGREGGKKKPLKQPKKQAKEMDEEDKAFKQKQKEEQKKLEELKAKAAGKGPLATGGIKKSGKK
# UniProt Q9UHN6, sequence (Q9UHN6 whole entry): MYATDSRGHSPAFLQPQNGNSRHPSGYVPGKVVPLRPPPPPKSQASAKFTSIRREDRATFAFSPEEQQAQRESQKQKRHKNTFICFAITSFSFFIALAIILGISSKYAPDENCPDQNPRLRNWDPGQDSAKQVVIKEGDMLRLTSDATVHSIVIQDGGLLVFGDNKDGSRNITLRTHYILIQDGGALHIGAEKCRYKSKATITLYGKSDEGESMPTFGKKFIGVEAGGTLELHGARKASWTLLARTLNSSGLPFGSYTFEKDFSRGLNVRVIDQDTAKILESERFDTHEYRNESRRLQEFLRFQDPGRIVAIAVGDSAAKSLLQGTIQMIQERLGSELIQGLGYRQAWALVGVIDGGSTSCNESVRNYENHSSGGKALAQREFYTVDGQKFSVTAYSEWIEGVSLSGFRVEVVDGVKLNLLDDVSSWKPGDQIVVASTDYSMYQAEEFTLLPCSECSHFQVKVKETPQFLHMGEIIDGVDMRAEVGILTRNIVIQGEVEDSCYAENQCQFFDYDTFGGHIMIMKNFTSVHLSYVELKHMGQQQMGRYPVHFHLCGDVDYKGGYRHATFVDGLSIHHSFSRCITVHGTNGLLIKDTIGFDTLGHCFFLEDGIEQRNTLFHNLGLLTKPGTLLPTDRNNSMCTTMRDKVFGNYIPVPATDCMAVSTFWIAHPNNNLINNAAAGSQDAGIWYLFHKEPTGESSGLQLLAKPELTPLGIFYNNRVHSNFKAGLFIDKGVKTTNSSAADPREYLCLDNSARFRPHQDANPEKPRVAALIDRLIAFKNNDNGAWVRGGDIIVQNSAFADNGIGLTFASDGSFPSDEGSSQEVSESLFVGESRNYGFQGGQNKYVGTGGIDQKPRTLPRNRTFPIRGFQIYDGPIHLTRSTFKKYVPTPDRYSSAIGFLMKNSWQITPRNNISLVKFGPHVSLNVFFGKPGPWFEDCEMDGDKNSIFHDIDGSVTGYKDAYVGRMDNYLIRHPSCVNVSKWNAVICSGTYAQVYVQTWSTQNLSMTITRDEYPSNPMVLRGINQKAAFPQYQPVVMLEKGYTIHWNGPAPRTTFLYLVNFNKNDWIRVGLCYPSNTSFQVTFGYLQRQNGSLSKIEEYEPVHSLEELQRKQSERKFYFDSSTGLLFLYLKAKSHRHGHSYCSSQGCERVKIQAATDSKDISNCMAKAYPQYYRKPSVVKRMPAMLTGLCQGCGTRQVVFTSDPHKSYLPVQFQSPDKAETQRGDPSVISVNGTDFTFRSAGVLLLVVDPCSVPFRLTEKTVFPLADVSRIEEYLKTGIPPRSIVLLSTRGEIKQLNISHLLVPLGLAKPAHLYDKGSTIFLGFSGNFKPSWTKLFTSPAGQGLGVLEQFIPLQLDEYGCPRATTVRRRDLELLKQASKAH
# UniProt Q9BTV4, sequence (Q9BTV4 whole entry): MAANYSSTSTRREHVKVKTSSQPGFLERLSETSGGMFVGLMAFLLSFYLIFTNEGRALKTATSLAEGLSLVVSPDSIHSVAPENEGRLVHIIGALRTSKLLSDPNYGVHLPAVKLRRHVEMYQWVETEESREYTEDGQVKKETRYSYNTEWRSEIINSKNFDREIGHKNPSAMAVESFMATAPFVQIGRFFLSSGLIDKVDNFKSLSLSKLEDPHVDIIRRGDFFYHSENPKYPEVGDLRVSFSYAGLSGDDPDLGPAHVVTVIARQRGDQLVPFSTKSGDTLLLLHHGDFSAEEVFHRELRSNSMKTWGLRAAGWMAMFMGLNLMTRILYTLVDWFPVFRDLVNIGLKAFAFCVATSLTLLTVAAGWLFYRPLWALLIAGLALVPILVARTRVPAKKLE
# UniProt Q9HD45, sequence (Q9HD45 whole entry): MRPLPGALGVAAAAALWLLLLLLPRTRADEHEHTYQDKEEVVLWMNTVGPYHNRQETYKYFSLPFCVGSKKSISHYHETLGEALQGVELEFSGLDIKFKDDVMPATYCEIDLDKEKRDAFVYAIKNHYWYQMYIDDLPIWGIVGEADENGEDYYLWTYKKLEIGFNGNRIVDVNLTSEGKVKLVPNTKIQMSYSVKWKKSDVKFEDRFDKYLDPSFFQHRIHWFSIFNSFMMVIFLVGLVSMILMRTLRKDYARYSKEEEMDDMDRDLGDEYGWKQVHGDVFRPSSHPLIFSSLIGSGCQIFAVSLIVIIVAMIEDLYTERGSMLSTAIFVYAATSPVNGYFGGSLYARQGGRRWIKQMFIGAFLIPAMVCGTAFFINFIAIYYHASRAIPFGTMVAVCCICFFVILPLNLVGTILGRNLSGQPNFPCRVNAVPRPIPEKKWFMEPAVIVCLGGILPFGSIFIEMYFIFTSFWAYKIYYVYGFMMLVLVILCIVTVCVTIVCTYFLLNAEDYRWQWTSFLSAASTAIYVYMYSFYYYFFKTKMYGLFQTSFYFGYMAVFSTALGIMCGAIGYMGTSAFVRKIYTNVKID
# UniProt Q5BJF2, sequence (Q5BJF2 whole entry): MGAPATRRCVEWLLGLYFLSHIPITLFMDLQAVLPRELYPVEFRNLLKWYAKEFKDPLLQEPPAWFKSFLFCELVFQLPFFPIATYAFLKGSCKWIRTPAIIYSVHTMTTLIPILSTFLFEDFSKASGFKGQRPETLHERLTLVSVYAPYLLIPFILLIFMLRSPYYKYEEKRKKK
# UniProt Q12893, sequence (Q12893 whole entry): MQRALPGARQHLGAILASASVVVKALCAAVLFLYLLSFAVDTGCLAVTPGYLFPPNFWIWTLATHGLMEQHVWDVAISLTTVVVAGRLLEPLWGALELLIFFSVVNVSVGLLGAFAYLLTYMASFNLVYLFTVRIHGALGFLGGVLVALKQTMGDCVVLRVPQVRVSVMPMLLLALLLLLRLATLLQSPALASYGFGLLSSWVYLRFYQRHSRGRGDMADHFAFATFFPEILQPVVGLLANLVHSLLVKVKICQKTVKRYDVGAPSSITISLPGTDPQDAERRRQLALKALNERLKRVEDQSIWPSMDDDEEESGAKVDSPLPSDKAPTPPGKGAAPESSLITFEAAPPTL
# UniProt Q8N5G2, sequence (Q8N5G2 whole entry): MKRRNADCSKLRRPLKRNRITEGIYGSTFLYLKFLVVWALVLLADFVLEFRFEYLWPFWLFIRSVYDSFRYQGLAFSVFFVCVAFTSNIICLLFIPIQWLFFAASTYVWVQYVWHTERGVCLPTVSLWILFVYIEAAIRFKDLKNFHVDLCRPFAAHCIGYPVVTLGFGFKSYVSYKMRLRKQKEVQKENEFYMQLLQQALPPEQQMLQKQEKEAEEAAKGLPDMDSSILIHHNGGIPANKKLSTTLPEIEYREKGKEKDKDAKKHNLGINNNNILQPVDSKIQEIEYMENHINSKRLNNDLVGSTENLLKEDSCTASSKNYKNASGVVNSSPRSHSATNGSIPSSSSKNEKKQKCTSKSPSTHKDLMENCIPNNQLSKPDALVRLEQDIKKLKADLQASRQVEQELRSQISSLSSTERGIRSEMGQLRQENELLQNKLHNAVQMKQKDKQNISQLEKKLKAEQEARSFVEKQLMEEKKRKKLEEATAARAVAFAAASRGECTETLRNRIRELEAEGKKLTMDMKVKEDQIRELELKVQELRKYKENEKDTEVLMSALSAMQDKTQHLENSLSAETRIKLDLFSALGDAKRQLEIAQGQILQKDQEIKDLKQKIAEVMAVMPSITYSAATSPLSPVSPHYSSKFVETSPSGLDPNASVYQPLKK
# UniProt Q9BVK6, sequence (Q9BVK6 whole entry): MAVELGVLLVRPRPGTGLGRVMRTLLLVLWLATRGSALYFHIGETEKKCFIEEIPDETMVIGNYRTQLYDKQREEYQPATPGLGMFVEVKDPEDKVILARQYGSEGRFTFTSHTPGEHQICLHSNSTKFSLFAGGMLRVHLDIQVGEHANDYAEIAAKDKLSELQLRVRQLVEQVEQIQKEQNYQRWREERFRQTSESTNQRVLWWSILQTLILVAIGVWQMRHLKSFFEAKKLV
# UniProt Q9NQ34, sequence (Q9NQ34 whole entry): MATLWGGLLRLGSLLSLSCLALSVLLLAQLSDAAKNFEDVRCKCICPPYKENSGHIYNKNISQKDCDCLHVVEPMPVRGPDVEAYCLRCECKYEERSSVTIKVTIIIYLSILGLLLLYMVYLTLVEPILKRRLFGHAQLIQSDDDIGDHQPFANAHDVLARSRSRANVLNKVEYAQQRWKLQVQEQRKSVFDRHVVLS
Target,thermal stability z-score (lipoamide; [1]),thermal stability z-score (lipoamide; arsenate co-treatment: none),thermal stability z-score (potassium arsenate)
TLN2 (UniProt Q9Y4G6),-1.57,-0.868,-0.69
TM7SF3 (UniProt Q9NS93),-0.0176,-0.523,0.533
TM9SF2 (UniProt Q99805),-0.509,-0.486,1.03
TM9SF3 (UniProt Q9HD45),-0.451,-0.0174,0.511
TM9SF4 (UniProt Q92544),-0.593,-0.263,0.734
TMA7 (UniProt Q9Y2S6),0.356,0.314,0.111
TMA16 (UniProt Q96EY4),-0.345,-0.0887,-0.0752
TMCO1 (UniProt Q9UM00),0.0581,0.305,-0.687
TMCO3 (UniProt Q6UWJ1),-0.807,-1.31,0.2
TMCO4 (UniProt Q5TGY1),-0.342,-0.363,-0.0739
TMED1 (UniProt Q13445),0.206,0.729,0.967
TMED2 (UniProt Q15363),-0.867,-1.06,0.624
TMED3 (UniProt Q9Y3Q3),-0.694,-0.398,0.316
TMED4 (UniProt Q7Z7H5),-0.192,-0.249,0.0343
TMED5 (UniProt Q9Y3A6),-1.78,-1.51,0.321
TMED7 (UniProt Q9Y3B3),-0.983,-0.909,0.0944
TMED9 (UniProt Q9BVK6),-1.24,-1.5,0.151
TMED10 (UniProt P49755),-1.53,-1.03,0.275
TMEM2 (UniProt Q9UHN6),-0.117,-0.196,0.466
TMEM9 (UniProt Q9P0T7),-2.36,-2,-0.267
TMEM9B (UniProt Q9NQ34),0.157,0.52,0.838
TMEM11 (UniProt P17152),-0.251,-0.145,-1.1
TMEM23|SGMS1,0.177,-0.142,-0.151
TMEM30A (UniProt Q9NV96),-0.45,-0.161,-0.845
TMEM33 (UniProt P57088),-0.0206,-1.12,0.972
TMEM38B (UniProt Q9NVV0),0.603,-0.085,0.654
TMEM41A (UniProt Q96HV5),0.652,0.936,0.885
TMEM41B (UniProt Q5BJD5),0.259,0.188,-0.153

Target,thermal stability z-score (lipoamide; [1]),thermal stability z-score (lipoamide; arsenate co-treatment: none),thermal stability z-score (potassium arsenate)
TMEM43 (UniProt Q9BTV4),-3.42,-3.08,0.701
TMEM55B (UniProt Q86T03),0.572,0.963,0.592
TMEM56 (UniProt Q96MV1),0.138,1.15,0.953
TMEM57 (UniProt Q8N5G2),0.13,-0.0957,-0.249
TMEM59 (UniProt Q9BXS4),-1.01,-0.383,-0.0618
TMEM63A (UniProt O94886),-0.739,-0.0217,-0.159
TMEM63B (UniProt Q5T3F8),-0.865,-0.374,-0.606
TMEM65 (UniProt Q6PI78),-0.379,-0.204,0.128
TMEM68 (UniProt Q96MH6),0.361,-0.287,-0.552
TMEM70 (UniProt Q9BUB7),0.461,-0.347,0.259
TMEM87A (UniProt Q8NBN3),0.451,0.36,0.645
TMEM87B (UniProt Q96K49),-0.402,0.56,-0.0195
TMEM97 (UniProt Q5BJF2),0.385,0.189,0.108
TMEM106B (UniProt Q9NUM4),-0.167,0.154,0.192
TMEM109 (UniProt Q9BVC6),0.0915,0.27,0.115
TMEM115 (UniProt Q12893),0.0848,0.637,-0.307
TMEM126A (UniProt Q9H061),0.676,0.815,0.231
TMEM126B (UniProt Q8IUX1),1.31,1.36,1.18
TMEM131 (UniProt Q92545),-1.03,0.061,0.83
TMEM160 (UniProt Q9NX00),-0.0998,0.628,0.0213
TMEM161A (UniProt Q9NX61),-0.0739,-0.0906,0.0752
TMEM165 (UniProt Q9HC07),0.669,-0.0469,0.116
TMEM173 (UniProt Q86WV6),0.0822,-0.0914,-0.0763
TMEM181 (UniProt Q9P2C4),0.128,0.201,0.205
TMEM186 (UniProt Q96B77),-1.59,-0.895,-0.803
TMEM189 (UniProt A5PLL7),-0.772,-0.595,-0.167
TMEM192 (UniProt Q8IY95),-0.861,0.064,-0.137
